# Several values for one entry are separate records, joined by “and”; a condition that tells them apart may be missing. Identical values can stand only once. After the bases stand the sugars from the 5' end (letter, count) and the backbone: PS all phosphorothioate, else s phosphorothioate and o phosphodiester by linkage. Methylation of C is not given here. e = 2'-O-(2-methoxyethyl) (MOE); k = constrained ethyl (cEt); d = 2'-deoxy (DNA)
# Molecular target: IRF4
# Settings: ASO
Sequence,"target mRNA inhibition (SK-MEL-28, 4 µM)","target mRNA inhibition (MM.1R, 1 µM)",other results
"TAGTATGAGAAACGGC (sugars k3 d10 k3, PS)",78%,–,"target mRNA inhibition (H929, 0.04 µM): 33% and 47%; target mRNA inhibition (KMS11, 0.2 µM): 65% and 85%"
"ACAGTGACTTGCATCC (sugars kdddddddddkekeke, PS)",–,6%,–
"GGGATTATATACTGGT (sugars kkdddddddddkekek, PS)",–,40%,–
"GTGATAGCTGAGCTGA (sugars kkddddddddddkeke, PS)",–,35%,–
"CCAAGTAATTTTAAGG (sugars k3 d10 k3, PS)",34%,–,–
"CCAAAGCATAGAGTCA (sugars k3 d10 k3, PS)",58%,–,–
"GTTCATACCCAATAGT (sugars k3 d10 k3, PS)",66%,–,–
"TCCAGAAAATTCAGCT (sugars k4 d8 k4, PS)",26%,–,–
"AAGAACTGCTGTGTGT (sugars k3 d10 k3, PS)",12%,–,–
"TACCTCAGTTTGTGAA (sugars k3 d10 k3, PS)",–,11%,–
"TTCTAGTCGCGCAAGT (sugars k3 d10 k3, PS)",–,-7%,–
"TCCTATTATAGAGCAT (sugars k3 d10 k3, PS)",–,3%,–
"TCCAAAGGGTTCAGTG (sugars k3 d10 k3, PS)",–,7%,–
"TGGAAACCAGCCCTTG (sugars k3 d10 k3, PS)",48%,–,–
"GGCGACTAACTCTCCT (sugars k3 d10 k3, PS)",63%,–,–
"GATAATATACCCCAAA (sugars k3 d10 k3, PS)",33%,–,–
"ACAGATAGTTAAGTAC (sugars k3 d10 k3, PS)",35%,–,–
"TGCCGCTGTCGATCTG (sugars k3 d10 k3, PS)",32%,–,–
"TATTTATGCCCTCGCT (sugars k3 d10 k3, PS)",26%,–,–
"AAAGAGGCACCCTCCT (sugars k3 d10 k3, PS)",-38%,–,–
"ACTCCATGAGGTTTTC (sugars k3 d10 k3, PS)",73%,–,–
"CTAGAAAGAGCTGGTA (sugars k3 d10 k3, PS)",15%,–,–
"CGTAACTCAGGCACCA (sugars k3 d10 k3, PS)",30%,–,–
"TCTAACAGATAACGAG (sugars k3 d10 k3, PS)",–,-3%,–
"TCCCACGAAGGGCAGT (sugars k3 d10 k3, PS)",6%,–,–
"CTTCCCTGAGAAATGG (sugars k4 d8 k4, PS)",36%,–,–

Sequence,"target mRNA inhibition (SK-MEL-28, 4 µM)","target mRNA inhibition (MM.1R, 1 µM)",other results
"ATAACACGGTGTTGAC (sugars k3 d10 k3, PS)",–,21%,–
"CTGTAACAGGCTATCA (sugars k3 d10 k3, PS)",44%,–,–
"CTAGAACATGATGAGA (sugars k3 d10 k3, PS)",29%,–,–
"GGGCAATGGAGTCTCG (sugars k3 d10 k3, PS)",24%,–,–
"ATTGCCTGTTAAGTCC (sugars k3 d10 k3, PS)",73%,–,–
"TGGTAGAATGTGATAT (sugars k3 d10 k3, PS)",43%,–,–
"GGCAAGATGAGAATTC (sugars k3 d10 k3, PS)",25%,–,–
"CAATTTATGCCATGGA (sugars k3 d10 k3, PS)",62%,–,"target mRNA inhibition (MM.1R, 0.074 µM): -4%; target mRNA inhibition (MM.1R, 0.222 µM): 5%; target mRNA inhibition (MM.1R, 0.666 µM): 9%; target mRNA inhibition (MM.1R, 2 µM): 40%"
"ACAGTGACTTGCATCC (sugars k3 d10 k3, PS)",–,34%,–
"CCTATAACTTCTCCTG (sugars k3 d10 k3, PS)",–,-7%,–
"CTCACTGCTCACTAAG (sugars k3 d10 k3, PS)",64%,–,–
"GTGATAGCTGAGCTGA (sugars k2 d9 e3 k2, PS)",–,13%,–
"AAATTAAAGAGCGCAT (sugars k3 d10 k3, PS)",13%,–,–
"CCCTATCACTGCCAAG (sugars k3 d10 k3, PS)",38%,–,–
"TTGCATAGGCATCCTT (sugars k3 d10 k3, PS)",47%,–,–
"ACCTTCGCGGCCGGCC (sugars k3 d10 k3, PS)",–,-42%,–
"CCTGGTCCAGGTTGCT (sugars k4 d8 k4, PS)",34%,–,–
"CAGTGACTTGCATCCA (sugars kdddddddddkekeke, PS)",–,19%,–
"GTGAAAACACTCATGG (sugars k3 d10 k3, PS)",60%,–,–
"CTGTTACCGATGCTTC (sugars kkdddddddddkdkdk, PS)",–,58% and 52%,–
"AAATCACGAGGTTGCC (sugars k3 d10 k3, PS)",–,21%,–
"AAGCATTTTATCATCC (sugars k3 d10 k3, PS)",–,25%,–
"CGCAAAACCCCTCAAG (sugars k3 d10 k3, PS)",19%,–,–
"GCATTTTATCATCCGA (sugars e1 k2 d9 k2 e2, PS)",–,61%,"target mRNA inhibition (MM.1R, 0.074 µM): 18%; target mRNA inhibition (MM.1R, 0.222 µM): 34%; target mRNA inhibition (MM.1R, 0.666 µM): 57%; target mRNA inhibition (MM.1R, 2 µM): 83%"
"ATCATCCGAAAAGACT (sugars k3 d10 k3, PS)",–,4%,–
"TACGACAACTTTCCTG (sugars k3 d10 k3, PS)",41%,–,–

Sequence,"target mRNA inhibition (SK-MEL-28, 4 µM)","target mRNA inhibition (MM.1R, 1 µM)",other results
"GGGCCCGTCCCAGTAG (sugars k3 d10 k3, PS)",20%,–,–
"GCTGCTCATTTCACTG (sugars k3 d10 k3, PS)",41%,–,–
"AGAGGAATGAGCACTC (sugars k3 d10 k3, PS)",–,5%,–
"GCATAGCATTATCTAC (sugars k3 d10 k3, PS)",51%,–,–
"AGCAGTAAACGCAAGT (sugars k3 d10 k3, PS)",–,27%,–
"ACACTTTTAGAGAGGA (sugars k3 d10 k3, PS)",63%,–,"target mRNA inhibition (MM.1R, 0.0625 µM): 32%; target mRNA inhibition (MM.1R, 0.222 µM): 25% and 41%; target mRNA inhibition (MM.1R, 0.25 µM): 41%; target mRNA inhibition (MM.1R, 2 µM): 72% and 89%; target mRNA inhibition (MM.1R, 4 µM): 74%"
"GGGAACAGATAGTTAA (sugars k3 d10 k3, PS)",26%,–,–
"ATGCGAAGAATTTTAG (sugars k3 d10 k3, PS)",21%,–,–
"AGGTAATCTGTATAGT (sugars k3 d10 k3, PS)",62%,–,–
"GACCCACACCAGGAAA (sugars k3 d10 k3, PS)",2%,–,–
"TGTTTTAAGAGGCGAC (sugars k3 d10 k3, PS)",–,3%,–
"CCACAAGAAAGAGACC (sugars k3 d10 k3, PS)",-9%,–,–
"ATGAACCCTAAGTTTA (sugars k3 d10 k3, PS)",–,-4%,–
"ACACTTTTAGAGAGGA (sugars kkdddddddddkekek, PS)",–,27%,–
"TCTAATCCACAATCAG (sugars k3 d10 k3, PS)",41%,–,–
"CACATAATCCAGTATC (sugars k3 d10 k3, PS)",43%,–,–
"TGTATTACTCTTAGGC (sugars k3 d10 k3, PS)",–,65% and 41%,"target mRNA inhibition (MM.1R, 0.0625 µM): 7%; target mRNA inhibition (MM.1R, 0.25 µM): 21%; target mRNA inhibition (MM.1R, 4 µM): 68%"
"GGATTCCGCGCGCAGA (sugars k3 d10 k3, PS)",–,21%,–
"CTCCAACCCTAGATAA (sugars k3 d10 k3, PS)",2%,–,–
"AGCATTTTATCATCCG (sugars kkddddddddddkeke, PS)",–,33%,–
"CGCGAAGGCTCCTACC (sugars k3 d10 k3, PS)",-41%,–,–
"CCCCTTAGGAACGAAG (sugars k3 d10 k3, PS)",–,-6%,–
"GAACAAGTGTATCTTT (sugars k3 d10 k3, PS)",–,5%,–
"ATGTTAGCCAATTCCT (sugars kddddddddddkekek, PS)",–,0% and 7%,–
"TGTAGGGCGACTAACT (sugars k3 d10 k3, PS)",21%,–,–
"GGTTAAATATTCTTCA (sugars k3 d10 k3, PS)",48%,–,–

Sequence,"target mRNA inhibition (SK-MEL-28, 4 µM)","target mRNA inhibition (MM.1R, 1 µM)",other results
"TAACAAGTTATCCAGT (sugars k3 d10 k3, PS)",12%,–,–
"ACGGAGGCGGCAGACG (sugars k3 d10 k3, PS)",–,-9%,–
"TACATGGCAGTGGAGC (sugars k3 d10 k3, PS)",71%,–,–
"TGCACTCGCGCAAAGG (sugars k3 d10 k3, PS)",28%,–,–
"CTCTATAGTGTTCCAG (sugars kkddddddddddkeke, PS)",–,27%,–
"GGTTACTAATTCCATA (sugars k3 d10 k3, PS)",56%,–,–
"TATACCAACGACAGCA (sugars k3 d10 k3, PS)",49%,–,–
"CGAGGTGATTCTCGGG (sugars k3 d10 k3, PS)",–,15%,–
"GTAGATCCTGCTCTGG (sugars k3 d10 k3, PS)",45%,–,–
"GTCTAAACCAGCATAT (sugars k3 d10 k3, PS)",19%,–,–
"AAGCAGTGATGTCAGG (sugars kddddddddddkekek, PS)",–,28% and 39%,–
"ACTGTTACCGATGCTT (sugars k3 d10 k3, PS)",–,43% and 25%,"target mRNA inhibition (MM.1R, 0.0625 µM): -11%; target mRNA inhibition (MM.1R, 0.25 µM): 4%; target mRNA inhibition (MM.1R, 4 µM): 65%"
"CTGTTACCGATGCTTC (sugars kkdddddddddekeke, PS)",–,50% and 60%,–
"CTGAAGCTTAGTTATC (sugars k3 d10 k3, PS)",38%,–,–
"GTACACCTCTTCACTA (sugars k3 d10 k3, PS)",7%,–,–
"CAGCATATTACAAACG (sugars k3 d10 k3, PS)",58%,–,–
"CATTTCATTTAATGTC (sugars k4 d8 k4, PS)",44%,–,–
"ATAGGTATACTTAAGC (sugars k3 d10 k3, PS)",80% and 79%,–,–
"TCTGAGATGTCCAGCT (sugars k3 d10 k3, PS)",45%,–,–
"TGTAGTATGAGAAACG (sugars e1 k2 d9 k2 e2, PS)",–,6%,–
"CTAACTTACAGGACTA (sugars k3 d10 k3, PS)",31%,–,–
"GAAGAGTTGGCGGTGG (sugars k3 d10 k3, PS)",15%,–,–
"AACTCATAGGTGTACA (sugars k3 d10 k3, PS)",61%,–,–
"CAGCATCTAAGGCAAG (sugars k3 d10 k3, PS)",54%,–,–

# From the OligoGym collection
